# According to patent US9695155B2, “Herbicidal substituted pyrimidinyloxy benzene compounds” (E. I. DU PONT DE NEMOURS AND COMPANY, priority 2013, dated 2017):
# Experiments:
# Italian ryegrass = assay: Test C postemergence; format: in vivo, Lolium multiflorum; conditions: Lolium multiflorum, post-emergence
# Procedure, shortened: (§1)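 Plants were kept under greenhouse conditions for 13–15 days following spray. Pre-emergent application went to soil (loam–sand), post-emergent to foliage at 1–4 leaves. Evaluation: visual, percent control against untreated checks.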
# blackgrass = assay: Test C postemergence; format: in vivo, Alopecurus myosuroides; conditions: Alopecurus myosuroides, post-emergence
# Procedure, shortened: as §1
# corn = assay: Test C postemergence; format: in vivo, Zea mays; conditions: Zea mays, post-emergence
# Procedure, shortened: as §1
# morningglory [1] = assay: Test A preemergence; format: in vivo, Ipomoea spp.
# Procedure, shortened: (§2)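 Visual 0–100 rating (100 = complete control) taken about 10 d post-treatment relative to untreated checks. Preemergence: directed soil spray on sown loam/sand pots. Postemergence: seedlings 2–10 cm, 1–2 leaf. Non-phytotoxic solvent formulation with surfactant.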
# giant foxtail [2] = assay: Test C postemergence; format: in vivo, Setaria faberii; conditions: Setaria faberi, post-emergence
# Procedure, shortened: as §1
# large (Lg) crabgrass [3] = assay: Test C postemergence; format: in vivo, Digitaria sanguinalis; conditions: Digitaria sanguinalis, post-emergence
# Procedure, shortened: as §1
# wild oat = assay: Test C postemergence; format: in vivo, Avena fatua; conditions: Avena fatua, post-emergence
# Procedure, shortened: as §1
# velvetleaf = assay: Test A preemergence; format: in vivo, Abutilon theophrasti
# Procedure, shortened: as §2
# large (Lg) crabgrass [4] = assay: Test A preemergence; format: in vivo, Digitaria sanguinalis; conditions: Digitaria sanguinalis, pre-emergence, 240 h
# Procedure, shortened: as §2
# chickweed = assay: Test C postemergence; format: in vivo, Stellaria media; conditions: Stellaria media, post-emergence
# Procedure, shortened: as §1
# johnsongrass = assay: Test C postemergence; format: in vivo, Sorghum halepense; conditions: Sorghum halepense, post-emergence
# Procedure, shortened: as §1
# morningglory [5] = assay: Test A postemergence; format: in vivo, Ipomoea spp.; conditions: Ipomoea, post-emergence, 240 h, 0 to 100 scale where 0 is no effect and 100 is complete control, read-out: Plant response rating, Morningglory
# Procedure, shortened: as §2
# yellow nutsedge = assay: Test C postemergence; format: in vivo, Cyperus esculentus; conditions: Cyperus, post-emergence
# Procedure, shortened: as §1
# waterhemp = assay: Test C postemergence; format: in vivo, Amaranthus rudis; conditions: Amaranthus tuberculatus, post-emergence
# Procedure, shortened: as §1
# giant foxtail [6] = assay: Test A preemergence; format: in vivo, Setaria faberii; conditions: Setaria faberi, pre-emergence, 240 h
# Procedure, shortened: as §2
# [7] = 125 g ai/ha, 0 to 100 scale where 0 is no effect and 100 is complete control
structure (smiles),measurement,setting,value
"N#Cc1cccc(Oc2ncc(F)cn2)c1-n1cc(C(F)(F)F)cn1 [Compound 79, 3-[(5-fluoro-2-pyrimidinyl)oxy]-2-[4-(trifluoromethyl)-1H-pyrazol-1-yl]benzonitrile]",pest or weed control at 125 g/ha,"Italian ryegrass; 125 g ai/ha, postemergence, read-out: Plant response rating (0 to 100), Ryegrass, Italian",20%
same,pest or weed control at 250 g/ha,"Italian ryegrass; 250 g ai/ha, postemergence, read-out: Plant response rating (0 to 100), Ryegrass, Italian",20%
same,pest or weed control at 31 g/ha,"Italian ryegrass; Postemergence, 31 g ai/ha, scale 0 to 100 (0 no effect, 100 complete control), 13 to 15 days, read-out: Plant response rating, Ryegrass, Italian",5%
same,pest or weed control at 62 g/ha,"Italian ryegrass; Postemergence, 62 g ai/ha, scale 0 to 100 (0 no effect, 100 complete control), read-out: Plant response rating, Ryegrass, Italian",10%
same,pest or weed control at 125 g/ha,"blackgrass; 125 g ai/ha, postemergence, read-out: Plant response rating (0 to 100), Blackgrass",35%
same,pest or weed control at 250 g/ha,"blackgrass; 250 g ai/ha, postemergence, read-out: Plant response rating (0 to 100), Blackgrass",80%
same,pest or weed control at 31 g/ha,"blackgrass; Postemergence, 31 g ai/ha, scale 0 to 100 (0 no effect, 100 complete control), 13 to 15 days, read-out: Plant response rating, Blackgrass",10%
same,pest or weed control at 62 g/ha,"blackgrass; Postemergence, 62 g ai/ha, scale 0 to 100 (0 no effect, 100 complete control), read-out: Plant response rating, Blackgrass",30%
same,plant injury at 125 g/ha,"corn; 125 g ai/ha, postemergence, read-out: Plant response rating (0 to 100), Corn",15%
same,plant injury at 250 g/ha,"corn; 250 g ai/ha, postemergence, read-out: Plant response rating (0 to 100), Corn",35%
same,"Corn plant response rating (crop injury, 0 = no effect, 100 = complete kill) at 31 g/ha","corn; Postemergence, 31 g ai/ha, scale 0 to 100 (0 no effect, 100 complete control), 13 to 15 days",5%
same,"Corn plant response rating (crop injury, 0 = no effect, 100 = complete kill) at 62 g/ha","corn; Postemergence, 62 g ai/ha, scale 0 to 100 (0 no effect, 100 complete control)",5%
same,"Plant response rating, Morningglory",morningglory [1]; [7],100
same,pest or weed control at 500 g/ha,"morningglory [1]; Ipomoea, pre-emergence, 240 h, 500 g ai/ha, 0 to 100 scale, 0 no effect, 100 complete control, approx. 10 days, read-out: Morningglory plant response rating",100%
same,pest or weed control at 125 g/ha,"giant foxtail [2]; 125 g ai/ha, postemergence, read-out: Plant response rating (0 to 100), Foxtail, Giant",20%
same,pest or weed control at 250 g/ha,"giant foxtail [2]; 250 g ai/ha, postemergence, read-out: Plant response rating (0 to 100), Foxtail, Giant",65%
same,pest or weed control at 31 g/ha,"giant foxtail [2]; Postemergence, 31 g ai/ha, scale 0 to 100 (0 no effect, 100 complete control), 13 to 15 days, read-out: Plant response rating, Foxtail, Giant",10%
same,pest or weed control at 62 g/ha,"giant foxtail [2]; Postemergence, 62 g ai/ha, scale 0 to 100 (0 no effect, 100 complete control), read-out: Plant response rating, Foxtail, Giant",10%
same,pest or weed control at 125 g/ha,"large (Lg) crabgrass [3]; 125 g ai/ha, postemergence, read-out: Plant response rating (0 to 100), Crabgrass, Large",30%
same,pest or weed control at 250 g/ha,"large (Lg) crabgrass [3]; 250 g ai/ha, postemergence, read-out: Plant response rating (0 to 100), Crabgrass, Large",65%
same,pest or weed control at 31 g/ha,"large (Lg) crabgrass [3]; Postemergence, 31 g ai/ha, scale 0 to 100 (0 no effect, 100 complete control), 13 to 15 days, read-out: Plant response rating, Crabgrass, Large",20%
same,pest or weed control at 62 g/ha,"large (Lg) crabgrass [3]; Postemergence, 62 g ai/ha, scale 0 to 100 (0 no effect, 100 complete control), read-out: Plant response rating, Crabgrass, Large",20%
same,pest or weed control at 125 g/ha,"wild oat; 125 g ai/ha, postemergence, read-out: Plant response rating (0 to 100), Oat, Wild",20%
same,pest or weed control at 250 g/ha,"wild oat; 250 g ai/ha, postemergence, read-out: Plant response rating (0 to 100), Oat, Wild",50%
same,pest or weed control at 31 g/ha,"wild oat; Postemergence, 31 g ai/ha, scale 0 to 100 (0 no effect, 100 complete control), 13 to 15 days, read-out: Plant response rating, Oat, Wild",10%
same,pest or weed control at 62 g/ha,"wild oat; Postemergence, 62 g ai/ha, scale 0 to 100 (0 no effect, 100 complete control), read-out: Plant response rating, Oat, Wild",15%
same,"Plant response rating, Velvetleaf",velvetleaf; [7],100
same,pest or weed control at 500 g/ha,"velvetleaf; Abutilon theophrasti, pre-emergence, 240 h, 500 g ai/ha, 0 to 100 scale, 0 no effect, 100 complete control, approx. 10 days, read-out: Velvetleaf plant response rating",100%
same,pest or weed control at 125 g/ha,"large (Lg) crabgrass [4]; 125 g ai/ha, 0 to 100 scale where 0 is no effect and 100 is complete control, read-out: Plant response rating, Crabgrass, Large",100%
same,pest or weed control at 500 g/ha,"large (Lg) crabgrass [4]; 500 g ai/ha, 0 to 100 scale, 0 no effect, 100 complete control, approx. 10 days, read-out: Crabgrass, Large plant response rating",100%
same,pest or weed control at 125 g/ha,"chickweed; 125 g ai/ha, postemergence, read-out: Plant response rating (0 to 100), Chickweed",90%
same,pest or weed control at 250 g/ha,"chickweed; 250 g ai/ha, postemergence, read-out: Plant response rating (0 to 100), Chickweed",95%
same,pest or weed control at 31 g/ha,"chickweed; Postemergence, 31 g ai/ha, scale 0 to 100 (0 no effect, 100 complete control), 13 to 15 days, read-out: Plant response rating, Chickweed",50%
same,pest or weed control at 62 g/ha,"chickweed; Postemergence, 62 g ai/ha, scale 0 to 100 (0 no effect, 100 complete control), read-out: Plant response rating, Chickweed",65%
same,pest or weed control at 125 g/ha,"johnsongrass; 125 g ai/ha, postemergence, read-out: Plant response rating (0 to 100), Johnsongrass",40%
same,pest or weed control at 250 g/ha,"johnsongrass; 250 g ai/ha, postemergence, read-out: Plant response rating (0 to 100), Johnsongrass",85%
same,pest or weed control at 31 g/ha,"johnsongrass; Postemergence, 31 g ai/ha, scale 0 to 100 (0 no effect, 100 complete control), 13 to 15 days, read-out: Plant response rating, Johnsongrass",5%
same,pest or weed control at 62 g/ha,"johnsongrass; Postemergence, 62 g ai/ha, scale 0 to 100 (0 no effect, 100 complete control), read-out: Plant response rating, Johnsongrass",10%
same,pest or weed control at 125 g/ha,morningglory [5]; 125 g ai/ha,100%
same,pest or weed control at 500 g/ha,morningglory [5]; 500 g ai/ha,100%
same,pest or weed control at 125 g/ha,"yellow nutsedge; 125 g ai/ha, postemergence, read-out: Plant response rating (0 to 100), Nutsedge, Yellow",5%
same,pest or weed control at 250 g/ha,"yellow nutsedge; 250 g ai/ha, postemergence, read-out: Plant response rating (0 to 100), Nutsedge, Yellow",25%
same,pest or weed control at 31 g/ha,"yellow nutsedge; Postemergence, 31 g ai/ha, scale 0 to 100 (0 no effect, 100 complete control), 13 to 15 days, read-out: Plant response rating, Nutsedge, Yellow",5%
same,pest or weed control at 62 g/ha,"yellow nutsedge; Postemergence, 62 g ai/ha, scale 0 to 100 (0 no effect, 100 complete control), read-out: Plant response rating, Nutsedge, Yellow",5%
same,pest or weed control at 125 g/ha,"waterhemp; 125 g ai/ha, postemergence, read-out: Plant response rating (0 to 100), Waterhemp",90%
same,pest or weed control at 250 g/ha,"waterhemp; 250 g ai/ha, postemergence, read-out: Plant response rating (0 to 100), Waterhemp",100%
same,pest or weed control at 31 g/ha,"waterhemp; Postemergence, 31 g ai/ha, scale 0 to 100 (0 no effect, 100 complete control), 13 to 15 days, read-out: Plant response rating, Waterhemp",75%
same,pest or weed control at 62 g/ha,"waterhemp; Postemergence, 62 g ai/ha, scale 0 to 100 (0 no effect, 100 complete control), read-out: Plant response rating, Waterhemp",80%
same,pest or weed control at 125 g/ha,"giant foxtail [6]; 125 g ai/ha, 0 to 100 scale where 0 is no effect and 100 is complete control, read-out: Plant response rating, Foxtail, Giant",100%
same,pest or weed control at 500 g/ha,"giant foxtail [6]; 500 g ai/ha, 0 to 100 scale, 0 no effect, 100 complete control, approx. 10 days, read-out: Foxtail, Giant plant response rating",100%
